The test system of series [1] is S. oralis (So, ATCC 35037). The series is described as follows: Bacterial proliferation measured by OD600. The series is classed as cell-based, Streptococcus oralis. The following applies: HCA at 0.1 μM; aerobic culture. As for the experimental part: Sg metabolites promote commensal bacterial proliferation and inhibit periodontopathogenic bacterial proliferation and colonization. Commensal bacteria, Sg, S. sanguinis (Ss, ATCC10556), S. mitis (Sm, ATCC49456) and S. oralis (So, ATCC 35037) were cultured in BHI medium. In addition, pathogenic bacteria, Pg was cultured using BHI and Tf (ATCC43037), and Td (ATCC 35405) were grown in Thioglycollate medium with vitamin K and Hemin in 90% N2, 5% H2, 5% CO2. The Sg metabolites were diluted using DMEM and added to the bacteria with the similar OD600 value. The same amount of DMEM was used as a control. During the exponential growth of bacteria, the OD600 value was measured to determine the proliferation. […] In addition, to determine the function of Sg metabolites on Pg colonization, Pg were inoculated in 24-well plates containing BHI or BHI supplemented with DMEM or Sg metabolites. […]
HCA promotes proliferation of health related bacteria and inhibits proliferation and attachment of periodontopathogenic bacteria. […] The composition of the microbiomes was determined by amplifying the V3 and V4 regions of the 16S rRNA genes. Raw data in FASTQ format were filtered and denoised using DADA2 (Divisive Amplicon Denoising Algorithm) to generate amplicon sequence variants (ASV) or operational taxonomical units (OTUs) that were then analyzed by QIIME2.

Series [2] concerns human monocyte-derived macrophages (MDM). The series is described as follows: MTT toxicity assay. The settings on record: HCA from 0.1 to 50 μM; 24 and 48 hours. The series is classed as cell-based. As for the experimental part:
HCA promotes proliferation of health related bacteria and inhibits proliferation and attachment of periodontopathogenic bacteria. Promoting the growth of health-related commensal bacteria while inhibiting proliferation and attachment of pathogenic bacteria may be effective at preventing or treating periodontal inflammation. To determine if HCA has an effect on the growth properties of commensal bacteria and periodontopathogens, HCA at different concentrations was added to aerobic culture of S. mitis and S. oralis and anaerobic culture of T. denticola as described in our published manuscript (see detail in Shu et al, Journal of Periodontology, 2022). FIGS. 18A-C summarize the functions of HCA on the proliferation of specific commensal and pathogenic bacteria. […] Furthermore, the function of HCA on P. gingivalis attachment, a key parameter of adhesion and biofilm formation by periodontopathogenic bacteria, was investigated. […] The composition of the microbiomes was determined by amplifying the V3 and V4 regions of the 16S rRNA genes. Raw data in FASTQ format were filtered and denoised using DADA2 (Divisive Amplicon Denoising Algorithm) to generate amplicon sequence variants (ASV) or operational taxonomical units (OTUs) that were then analyzed by QIIME2.

In the next series the test system is 3T3-L1. In words: TNF-induced inflammation in differentiated white adipocytes. The series is classed as cell-based, mouse. The following applies: 10 ng/ml TNF with 0.1 uM HCA, 24 hr. As for the experimental part:
3T3-L1 (CL-173-ATCC, PMID. 26451286) were grown in DMEM containing 10% fetal bovine serum (FBS) and 1% pen/strep. Cells were induced to differentiate 2 d after reaching confluence by supplementing growth media with 3 nM insulin (Humulin R, Lily, Humulin R U-500, 0002-8501-01), 0.25 nM dexamethasone (Sigma, D4902), 2 uM rosiglitazone (Sigma, R2408) and 0.5 mM 1-methyl-3-isobutyl-xanthine (Sigma, I5879). From day 3 until day 7, cells were maintained in growth media supplemented with 3 nM insulin after which the mature adipocytes were maintained in growth media. Cells were then incubated for 24 hr in the presence or absence of 10 ng/ml TNF (PeproTech, 315-01A) with or without 0.1 uM 6-Hydroxycaproic acid (HCA, Sigma, 515302).
To determine the effects of HCA on adipose-mediated inflammation, 3T3-L1 cells were differentiated into white adipocytes and then exposed to the pro-inflammatory cytokine tumor necrosis factor alpha (TNFa).

Regarding `O=C(O)CCCCCO` [HCA, 6-hydroxycaproic acid], the “proliferation of S. oralis” value in series [1] is given as “improve proliferation”. Moreover, in series [2], the “toxicity (MTT assay)” value is “No toxicity”. The “TNF-induced IL-6 secretion” value in the series on 3T3-L1 is reported as “significantly reduced”.
